Test results published in patent US20240368156A1, “2-AZABICYCLO[2.2.1]HEPTANE KRAS INHIBITORS” (INCYTE CORPORATION, priority 2023, published 2024).

Tests used:
KRAS G12D = KRAS G12D (Homo sapiens, UniProt P01116, G12D); test: GDP-GTP exchange assay (bodipy-GDP/GppNHp, SOS1), KRAS G12D; type: biochemical; conditions: 2.5 nM bodipy-loaded KRAS G12D, 4 h pre-incubation, 2 h reaction with GppNHp and SOS1; for certain compounds the most potent isomer is quoted; read-out: KRAS_G12D exchange assay IC50
Description: (§1) The inhibitor potency of the exemplified compounds was determined in a fluorescence based guanine nucleotide exchange assay, which measures the exchange of bodipy-GDP (fluorescently labeled GDP) for GppNHp (Non-hydrolyzable GTP analog) to generate the active state of KRAS in the presence of SOS1 (guanine nucleotide exchange factor). Inhibitors were serially diluted in DMSO and a volume of 0.1 μL was transferred to the wells of a black low volume 384-well plate. 5 µL/well volume of bodipy-loaded KRAS G12D diluted to 2.5 nM in assay buffer (25 mM Hepes pH 7.5, 50 mM NaCl, 10 mM MgCl2 and 0.01% Brij-35) was added to the plate and pre-incubated with inhibitor for 4 h at r.t. Appropriate controls (enzyme with no inhibitor or with a G12D inhibitor) were included on the plate. The exchange was initiated by the addition of a 5 μL/well volume containing 1 mM GppNHp and 300 nM SOS1 in assay buffer. The 10 μL/well reaction concentration of the bodipy-loaded KRAS G12D, GppNHp, and SOS1 were 2.5 nM, 500 μM, and 150 nM, respectively. The reaction plates were incubated at r.t. for 2 h, a time estimated for complete GDP-GTP exchange in the absence of inhibitor. For the KRAS G12V mutant, similar guanine nucleotide exchange assays were used with 2.5 nM as final concentration for the bodipy loaded KRAS proteins and 3 h incubation after adding GppNHp-SOS1 mixture. A cyclic peptide described to selectively bind G12D mutant (Sakamoto et al., BBRC 484.3 (2017), 605-611) or internal compounds with confirmed binding were used as positive controls in the assay plates. Fluorescence intensities were measured on a PheraStar plate reader instrument (BMG Labtech) with excitation at 485 nm and emission at 520 nm.
(§2) Either GraphPad prism or Genedata Screener SmartFit was used to analyze the data. The IC50 values were derived by fitting the data to a four parameter logistic equation producing a sigmoidal dose-response curve with a variable Hill coefficient.
(§3) The symbol “†” indicates IC50≤100 nM, “††” indicates IC50>100 nM but ≤1 μM; and “†††” indicates IC50 is >1 μM but ≤5 μM, “††††” indicates IC50 is >5 µM but ≤10 μM. “NA” indicates IC50 not available.

KRAS G12V = KRAS G12V (Homo sapiens, UniProt P01116, G12V); test: GDP-GTP exchange assay (bodipy-GDP/GppNHp, SOS1), KRAS G12V; type: biochemical; conditions: 2.5 nM bodipy-loaded KRAS G12V, 3 h incubation after adding GppNHp-SOS1; for certain compounds the most potent isomer is quoted; read-out: KRAS_G12V exchange assay IC50
Description: as §1, §2, §3

KRAS G12D, sequence (P01116 1-188 isoform P01116-2 G12D): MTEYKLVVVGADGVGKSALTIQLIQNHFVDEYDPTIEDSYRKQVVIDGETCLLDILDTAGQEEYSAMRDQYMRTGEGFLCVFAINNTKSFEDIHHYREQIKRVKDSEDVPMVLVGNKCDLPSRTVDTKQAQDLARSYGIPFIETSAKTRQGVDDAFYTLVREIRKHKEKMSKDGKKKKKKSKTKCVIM
KRAS G12V, sequence (P01116 1-188 isoform P01116-2 G12V): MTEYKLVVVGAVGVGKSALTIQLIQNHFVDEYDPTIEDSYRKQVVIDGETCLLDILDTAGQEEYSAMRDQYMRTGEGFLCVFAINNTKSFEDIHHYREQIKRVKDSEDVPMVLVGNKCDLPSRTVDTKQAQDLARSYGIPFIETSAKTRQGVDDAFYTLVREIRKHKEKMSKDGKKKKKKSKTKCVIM

SMILES | IC50 (KRAS G12D) [nM] | IC50 (KRAS G12V) [nM]
C[C@@H](O)c1nc2c(F)c(-c3cccc(Cl)c3Cl)c(CCC#N)cc2c2c1cc([C@H]1[C@H]3C[C@H](C[C@H]3Cl)N1C(=O)C1(F)CC1)n2[C@H]1[C@H]2CN[C@@H]1C2 (atropisomer, axis not shown) [Example 33, 3-((R)-1-((1R,4R,5S)-2-azabicyclo[2.1.1]hexan-5-yl)-2-((1R,3R,4R,5R)-5-chloro-2-(1-fluorocyclopropane-1-carbonyl)-2-azabicyclo[2.2.1]heptan-3-yl)-7-(2,3-dichlorophenyl)-6-fluoro-4-((R)-1-hydroxyethyl)-1H-pyrrolo[3,2-c]quinolin-8-yl)propanenitrile] | ≤ 100 | ≤ 100
Cc1nc2c(F)c(-c3cccc(Cl)c3Cl)c(CCC#N)cc2c2c1cc([C@H]1[C@H]3C[C@H](C[C@@H]3OCc3ccccc3)N1C(=O)C1CC1)n2C1[C@H]2CN[C@@H]1C2 (stereo partly drawn) [Example 29, 3-(2-((1R,3R,4R,5S)-5-(benzyloxy)-2-(cyclopropanecarbonyl)-2-azabicyclo[2.2.1]heptan-3-yl)-1-((1R,4R)-2-azabicyclo[2.1.1]hexan-5-yl)-7-(2,3-dichlorophenyl)-6-fluoro-4-methyl-1H-pyrrolo[3,2-c]quinolin-8-yl)propanenitrile] | ≤ 100 | ≤ 100
Cc1nc2c(F)c(-c3cccc(Cl)c3Cl)c(CCC#N)cc2c2c1cc([C@H]1[C@H]3C[C@H](C[C@@H]3OCc3ccccc3)N1C(=O)C1CC1)n2[C@H]1[C@H]2CN[C@@H]1C2 (atropisomer, axis not shown; (Ra)) [Example 6, 3-((Ra)-2-((1R,3R,4R,5S)-5-(Benzyloxy)-2-(cyclopropanecarbonyl)-2-azabicyclo[2.2.1]heptan-3-yl)-1-((1R,4R,5S)-2-azabicyclo[2.1.1]hexan-5-yl)-7-(2,3-dichlorophenyl)-6-fluoro-4-methyl-1H-pyrrolo[3,2-c]quinolin-8-yl)propanenitrile] | ≤ 100 | ≤ 100
Cc1nc2c(F)c(-c3cccc(Cl)c3Cl)c(CCC#N)cc2c2c1cc([C@H]1[C@@H]3CC[C@@H](C3)N1C(=O)C1CC1)n2[C@H]1[C@H]2CN[C@@H]1C2 [Example 11, 3-(1-((1R,4R,5S)-2-azabicyclo[2.1.1]hexan-5-yl)-2-((1S,3R,4R)-2-(cyclopropanecarbonyl)-2-azabicyclo[2.2.1]heptan-3-yl)-7-(2,3-dichlorophenyl)-6-fluoro-4-methyl-1H-pyrrolo[3,2-c]quinolin-8-yl)propanenitrile] | ≤ 100 | ≤ 100
Cc1nc2c(F)c(-c3cccc(Cl)c3Cl)c(CCC#N)cc2c2c1cc([C@H]1[C@H]3C[C@H](C[C@@H]3C(F)F)N1C(=O)C1(F)CC1)n2[C@H]1[C@H]2CN[C@@H]1C2 (atropisomer, axis not shown; (Ra)) [Example 44, 3-((Ra)-1-((1R,4R,5S)-2-Azabicyclo[2.1.1]hexan-5-yl)-7-(2,3-dichlorophenyl)-2-((1R,3R,4S,5S)-5-(difluoromethyl)-2-(1-fluorocyclopropane-1-carbonyl)-2-azabicyclo[2.2.1]heptan-3-yl)-6-fluoro-4-methyl-1H-pyrrolo[3,2-c]quinolin-8-yl)propanenitrile] | ≤ 100 | ≤ 100
Cc1nc2c(F)c(-c3cccc(Cl)c3Cl)c(CCC#N)cc2c2c1cc([C@H]1[C@H]3C[C@H](C[C@@H]3Oc3cccnc3)N1C(=O)C1CC1)n2[C@H]1[C@H]2CN[C@@H]1C2 (atropisomer, axis not shown; (Ra)) [Example 5, 3-((Ra)-1-((1R,4R,5S)-2-Azabicyclo[2.1.1]hexan-5-yl)-2-((1R,3R,4R,5S)-2-(cyclopropanecarbonyl)-5-(pyridin-3-yloxy)-2-azabicyclo[2.2.1]heptan-3-yl)-7-(2,3-dichlorophenyl)-6-fluoro-4-methyl-1H-pyrrolo[3,2-c]quinolin-8-yl)propanenitrile] | ≤ 100 | ≤ 100
C[C@@H](O)c1nc2c(F)c(-c3cccc(Cl)c3Cl)c(CCC#N)cc2c2c1cc([C@H]1[C@H]3C[C@H](C[C@@H]3F)N1C(=O)C1(F)CC1)n2[C@H]1[C@H]2CN[C@@H]1C2 (single isomer, unassigned) [Example 8] | ≤ 100 | ≤ 100
Cc1nc2c(F)c(-c3cccc(Cl)c3Cl)c(CCC#N)cc2c2c1cc([C@H]1[C@H]3C[C@H](C[C@@H]3OC(F)F)N1C(=O)C1CC1)n2C1[C@H]2CN[C@@H]1C2 (stereo partly drawn) [Example 30, 3-((7R)-1-((1R,4R)-2-azabicyclo[2.1.1]hexan-5-yl)-2-((1R,3R,4R,5S)-2-(cyclopropanecarbonyl)-5-(difluoromethoxy)-2-azabicyclo[2.2.1]heptan-3-yl)-7-(2,3-dichlorophenyl)-6-fluoro-4-methyl-1H-pyrrolo[3,2-c]quinolin-8-yl)propanenitrile] | ≤ 100 | ≤ 100

Now from value to compound:

IC50 (KRAS G12D) [nM] | IC50 (KRAS G12V) [nM] | SMILES
≤ 100 | ≤ 100 | CO[C@H]1C[C@H]2C[C@@H]1[C@H](c1cc3c(C)nc4c(F)c(-c5cccc(Cl)c5Cl)c(CCC#N)cc4c3n1[C@H]1[C@H]3CN[C@@H]1C3)N2C(=O)C1CC1 [Example 15, 3-(1-((1R,4R,5S)-2-azabicyclo[2.1.1]hexan-5-yl)-2-((1R,3R,4R,5S)-2-(cyclopropanecarbonyl)-5-methoxy-2-azabicyclo[2.2.1]heptan-3-yl)-7-(2,3-dichlorophenyl)-6-fluoro-4-methyl-1H-pyrrolo[3,2-c]quinolin-8-yl)propanenitrile]
≤ 100 | ≤ 100 | Cc1nc2c(F)c(-c3cccc(Cl)c3Cl)c(CCC#N)cc2c2c1cc([C@H]1[C@H]3C[C@H](C[C@@H]3C)N1C(=O)C1CC1)n2C1[C@H]2CN[C@@H]1C2 (stereo partly drawn) [Example 19, 3-(1-((1R,4R)-2-azabicyclo[2.1.1]hexan-5-yl)-2-((1S,3R,4S,5S)-2-(cyclopropanecarbonyl)-5-methyl-2-azabicyclo[2.2.1]heptan-3-yl)-7-(2,3-dichlorophenyl)-6-fluoro-4-methyl-1H-pyrrolo[3,2-c]quinolin-8-yl)propanenitrile]
≤ 100 | ≤ 100 | Cc1nc2c(F)c(-c3cccc(Cl)c3Cl)c(CCC#N)cc2c2c1cc([C@H]1[C@H]3C[C@H](C[C@@H]3C(F)F)N1C(=O)C1CC1)n2[C@H]1[C@H]2CN[C@@H]1C2 (atropisomer, axis not shown; (Ra)) [Example 9, 3-((Ra)-1-((1R,4R,5S)-2-Azabicyclo[2.1.1]hexan-5-yl)-2-((1R,3R,4S,5S)-2-(cyclopropanecarbonyl)-5-(difluoromethyl)-2-azabicyclo[2.2.1]heptan-3-yl)-7-(2,3-dichlorophenyl)-6-fluoro-4-methyl-1H-pyrrolo[3,2-c]quinolin-8-yl)propanenitrile]
≤ 100 | ≤ 100 | COC(=O)N1[C@@H]2C[C@@H]([C@@H](C(F)F)C2)[C@@H]1c1cc2c(C)nc3c(F)c(-c4cccc(Cl)c4Cl)c(CCC#N)cc3c2n1[C@H]1[C@H]2CN[C@@H]1C2 (atropisomer, axis not shown; (Ra)) [Example 43, Methyl (1R,3R,4S,5S)-3-((Ra)-1-((1R,4R,5S)-2-azabicyclo[2.1.1]hexan-5-yl)-8-(2-cyanoethyl)-7-(2,3-dichlorophenyl)-6-fluoro-4-methyl-1H-pyrrolo[3,2-c]quinolin-2-yl)-5-(difluoromethyl)-2-azabicyclo[2.2.1]heptane-2-carboxylate]
